Measured values from patent US20250044299A1, “PROTEIN STABILITY ASSAY” (Medicines Discovery Catapult Limited, priority 2021, published 2025).

Key:
[1] = biological target: T1, p38α MAPK (Homo sapiens, UniProt Q16539); assay: Protein stability assay, AlphaLISA endpoint, HEK293T cell lysate, AEA titration (Example 1); assay type: binding; parameters: endogenous in cells; host or cells: HEK293T; conditions: compound at 10 or 100 μM, vs DMSO only
Experimental: Lysate from HEK293T cells grown in continuous culture at 5% CO2/37° C. in full growth media (RPMI (Gibco 11835-063), 10% FCS (Gibco F7524) 1% Glutamax (Gibco 35050-061)) was produced by growing cells in flasks to 85% confluence, removing from the surface using 3 ml Tryple Select (Gibco 12563011), centrifuging (1000 rpm for 4 minutes) to pellet, washing cell pellet two times in DPBS (Gibco 14190-094), resuspending in 1 ml of DPBS (Gibco 14190-094) containing 1× HALT Protease and Phosphatase inhibitor cocktail (Thermo Scientific 78440) per flask and lysing by three cycles of a liquid nitrogen freeze followed by thawing at room temperature. […]
To run the protein stability assay, an aliquot of HEK293T cell lysate at 4 μg/μl was thawed at room temperature and 2 μl added to each well of a 384-well White ProxiPlate (Perkin Elmer 6008280) containing […], 100 μM AMG-548 (Bio-Techne 3920/10) or an equivalent volume of DMSO dosed using the Labcyte ECHO. […] While incubating, fresh 100% AEA (Acetone (11443733), Ethanol (10437341) and Acetic Acid (10365020), all from Fisher Scientific in a ratio of 50:50:0.1) denaturant was made in a glass bottle ready for use. An aliquot of 100% AEA was diluted to 50% in DPBS (Gibco 14190-094) ready to produce titration curves of denaturant. […]
Target sequence in this assay (Q16539 whole entry): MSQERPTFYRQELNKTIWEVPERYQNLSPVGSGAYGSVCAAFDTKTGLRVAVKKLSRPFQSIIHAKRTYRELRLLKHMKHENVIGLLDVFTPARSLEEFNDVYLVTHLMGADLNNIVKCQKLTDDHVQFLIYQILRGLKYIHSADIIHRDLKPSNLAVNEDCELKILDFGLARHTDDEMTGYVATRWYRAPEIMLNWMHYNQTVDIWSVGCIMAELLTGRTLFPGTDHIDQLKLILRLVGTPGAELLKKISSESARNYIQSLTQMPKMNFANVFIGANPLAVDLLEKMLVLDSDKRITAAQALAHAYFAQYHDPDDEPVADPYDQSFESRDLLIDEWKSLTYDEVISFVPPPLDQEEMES

[2] = biological target: T1, p38α MAPK; assay: Whole cell protein stability assay, AlphaLISA endpoint, intact HEK293T cells, EA titration (Example 4); assay type: cell-based; parameters: endogenous in cells; host or cells: HEK293T; conditions: 10 μM compound as printed, vs DMSO only
Experimental: HEK293T cells were grown in media (RPMI (Gibco 11835-063), 10% FCS (Gibco F7524) 1% Glutamax (Gibco 35050-061)) to approximately 85% confluence in a flask before harvesting from the surface using 3 ml Tryple Select (Gibco 12563011), washing cell pellet once in DPBS (Gibco 14190-094) and resuspending in media. Cells were counted and diluted in media to a density of 1×10^7 cell/ml.
To run the protein stability assay 5 μl of cells at a density of 1×10^7 cell/ml was added to each well of a 384-well White ProxiPlate ([…]) or an equivalent volume of DMSO dosed using the Labcyte ECHO. The contents of the plate were settled by a short pulse spin, sealed with a TopSeal-A Plus plate seal (Perkin Elmer 6050185) and the compound/lysate mixes incubated at ambient temperature for 30 minutes to 1 hour to allow potential target engagement by compound to occur. While incubating, fresh 100% EA (Ethanol (10437341) and Acetic Acid (10365020), all from Fisher Scientific in a ratio of 100:0.1) denaturant was made in a glass bottle ready for use. 100% EA was used to produce a titration curve of denaturant. […]
The dilution series to be added was made up as a 2× stock so that when 5 μl of denaturant was added to 5 μl lysate the final volume was 10 μl. […] After incubation the plate was read on a fluorescence detecting plate reader (Excitation 680 nm, Emission 615 nm) to determine well signals.
Target sequence in this assay (Q16539 whole entry): as above

[3] = biological target: T1, p38α MAPK; assay: Protein stability assay, HeLa p38α HiBiT cell lysate, HiBiT endpoint compared with AlphaLISA endpoint (Example 7); assay type: binding; parameters: lysate of HeLa p38α MAPK-linked HiBiT® endogenously tagged cells; endogenous in cells; host or cells: HeLa p38α HiBiT (genome-edited, endogenously tagged)
Target sequence in this assay (Q16539 2-360): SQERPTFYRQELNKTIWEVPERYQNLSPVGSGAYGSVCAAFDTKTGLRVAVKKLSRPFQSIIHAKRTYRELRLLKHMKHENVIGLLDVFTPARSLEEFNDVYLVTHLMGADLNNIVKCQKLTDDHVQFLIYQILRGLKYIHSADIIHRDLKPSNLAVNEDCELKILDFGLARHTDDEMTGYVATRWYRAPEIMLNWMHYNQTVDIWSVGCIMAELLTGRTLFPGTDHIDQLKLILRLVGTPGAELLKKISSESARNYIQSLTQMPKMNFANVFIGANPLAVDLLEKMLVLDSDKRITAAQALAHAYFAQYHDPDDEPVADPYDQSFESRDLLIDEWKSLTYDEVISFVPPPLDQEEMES
Experimental: Hela cells expressing the p38α target protein as a C-terminal fusion with a small peptide that includes the Promega HiBit® amino acid sequence were used as the starting material for lysate generation.
A solution containing 1:100 LgBiT® Protein and 1:100 Nano-Glo HiBiT® Lytic Substrate in PBS was created in a suitable volume. […] After incubation the plate was read on a luminescence detecting plate reader (3600 gain, 470-480 emission) to determine well signals.

[4] = biological target: T2, p38α (Homo sapiens, UniProt Q16539); assay: Chemical protein stability assay, single-well per test compound format, AlphaLISA, HEK293T cell lysate (Example 9); assay type: binding; conditions: 10 μM compound, 384-well single wells
T2 construct: endogenous in cells; host or cells: HEK293T
T2 sequence (Q16539 whole entry): as the sequence (Q16539 whole entry) above
Experimental: For signal detection an antibody detection mix was made up no more than 20 minutes prior to use.

For `Cn1c(NC[C@@H](N)Cc2ccccc2)nc(-c2ccncc2)c(-c2ccc3ccccc3c2)c1=O` [AMG-548], the “stabilisation of p38α MAPK protein (shift in protein denaturation curves)” value [1] was “stabilisation of p38α MAPK protein in a dose dependent manner”, the “stabilisation of p38α MAPK protein (shift in protein denaturation curves)” value [2] was “stabilisation of p38α MAPK protein compared to DMSO only treatment” and the “stabilisation of p38α MAPK target protein (shift of denaturant titration curves)” value ([3]; 100 μM compound, AEA and EA titration, HiBiT or AlphaLISA endpoints, vs DMSO only) was “clear shift between the titration curves”. The “effect of compound on protein unfolding, concentration response curves” value ([3]; HiBiT endpoint, fixed dose of denaturant) was “clear dose dependent effect” and the “single-well signal vs minimum signal (22% EA, DMSO vehicle)” value [4] was “higher Maximum effect signal”.
